Reference: patent publication US11542287B2, “Alkyldiphenylmethane protective agent” (priority 2017, dated 2023)
In brackets after ≈: the same amount, converted by molar mass. Peptide text beside a SMILES is read from it.

Assay: physchem
Type: physicochemical
Protocol: Results of measurement of solubility of a peptide protected with an alkyldiphenylmethane protective agent of the present invention are shown below.
Peptide used as model: H-Phe-Leu-Gly-NH2
H-Phe-Leu-Gly-NH2 and H-Phe-Leu-Gly-NH-(TIPS2-Dpm(Me)) were synthesized, CPME (cyclopentyl methyl ether) was saturated with each of the compounds at 25° C., and the solubility was measured.
As a result, merely 0.2 mM of H-Phe-Leu-Gly-NH2 to which an alkyldiphenylmethane protective agent was not bonded was dissolved in CPME. […] H-Phe-Leu-Gly-NH2 and H-Phe-Leu-Gly-NH-(TIPS2-Dpm(Me)) represent the following structures.

Compound | solubility [µM] | increase in solubility versus H-Phe-Leu-Gly-NH2
CC(C)C[C@H](NC(=O)[C@@H](N)Cc1ccccc1)C(=O)NCC(N)=O [H-Phe-Leu-Gly-NH2, reference compound] (H-Phe-Leu-Gly-NH2) | 200 (≈ 0.0669 mg/mL) | –
CC(C)C[C@H](NC(=O)[C@@H](N)Cc1ccccc1)C(=O)NCC(=O)NC(C)(c1ccc(OCCCCCCCCCCCO[Si](C(C)C)(C(C)C)C(C)C)cc1)c1ccc(OCCCCCCCCCCCO[Si](C(C)C)(C(C)C)C(C)C)cc1 [H-Phe-Leu-Gly-NH-(TIPS2-Dpm(Me))] | ≥ 838000 | ≥ 4,190 fold
